The target of test [1] is T1, full length Keap1 protein / full length NRF2 protein (Homo sapiens, UniProt Q14145).
T1 construct: full length NRF2 protein and full length Keap1 protein (Keap1 exists a dimer) are used; His
Put plainly: NRF2-Keap1 TR-FRET Assay. The test is classed as binding. Particulars: 25 nM Keap1-FlagHis and 50 nM biotin-NRF2 added. Summed up: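 Displacement of biotinylated full-length NRF2 from full-length Keap1 read by Eu/APC TR-FRET (665/615 nm) after 1 h detection at RT. Compound, 3-fold series, first incubated with Keap1 at 37 °C for 2.25 h, NRF2 then added at 4 °C for 1.25 h; pIC50 by four-parameter equation.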

The target in test [2] is T1, full length Keap1 protein / full length NRF2 protein. Put plainly: NRF2-Keap1 TR-FRET Low Protein Assay. It counts as binding. Particulars: 1.25 nM Keap1 FlagHis and 2.5 nM biotin-NRF2 added. In short, it runs like this: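 Flag-tagged full-length Keap1 was preincubated with compound (3-fold series) for 2.25 h at 37 °C in Tris pH 8.0/MgCl2/NaCl/BSA/DTT/CHAPS. Biotin-Avi-NRF2 (added at 2.5 nM) was then bound for 1.25 h at 4 °C. Eu-streptavidin/anti-Flag-APC TR-FRET (665/615 nm) was read after 1 h at RT, and pIC50 came from a four-parameter fit.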
A general note: Time-resolved FRET reads energy transfer from a long-lived donor to a nearby acceptor.

T1 sequence (Q14145 whole entry): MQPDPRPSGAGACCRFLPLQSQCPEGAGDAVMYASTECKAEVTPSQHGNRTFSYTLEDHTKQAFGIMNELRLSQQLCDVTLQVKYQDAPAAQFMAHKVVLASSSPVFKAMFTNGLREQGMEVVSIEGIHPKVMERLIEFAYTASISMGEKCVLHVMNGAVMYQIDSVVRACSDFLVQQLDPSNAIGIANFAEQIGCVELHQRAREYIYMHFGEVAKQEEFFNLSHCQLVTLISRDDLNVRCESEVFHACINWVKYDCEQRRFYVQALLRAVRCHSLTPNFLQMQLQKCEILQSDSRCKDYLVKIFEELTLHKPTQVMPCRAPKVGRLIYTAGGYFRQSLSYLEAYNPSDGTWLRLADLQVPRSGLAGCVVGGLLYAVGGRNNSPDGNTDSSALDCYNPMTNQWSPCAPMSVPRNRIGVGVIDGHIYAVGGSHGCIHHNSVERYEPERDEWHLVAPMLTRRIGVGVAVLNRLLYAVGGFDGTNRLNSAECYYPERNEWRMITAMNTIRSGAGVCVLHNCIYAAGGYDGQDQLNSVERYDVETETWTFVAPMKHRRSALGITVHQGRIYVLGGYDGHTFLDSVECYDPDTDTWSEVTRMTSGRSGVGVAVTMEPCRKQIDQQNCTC

Turning to `Cn1cc(C2CC2c2c(C(=O)O)cnn2-c2cccc(-c3cccc(C(O)CC4CCCCC4)c3)c2)nn1` (stereo not drawn) [Example 217, 1-(3′-(2-Cyclohexyl-1-hydroxyethyl)-[1,1′-biphenyl]-3-yl)-5-(2-(1-methyl-1H-1,2,3-triazol-4-yl)cyclopropyl)-1H-pyrazole-4-carboxylic acid], the results for the IC50 in test [1] and in test [2] were 100 to 1000 nM and 10 to 100 nM, respectively.
`CC(CC1CCCCC1)Oc1cccc(-c2cccc(-n3ncc(C(=O)O)c3C3CC3c3cn(C)nn3)c2)c1` (stereo not drawn) [Example 218, 1-(3′-((1-Cyclohexylpropan-2-yl)oxy)-[1,1′-biphenyl]-3-yl)-5-(2-(1-methyl-1H-1,2,3-triazol-4-yl)cyclopropyl)-1H-pyrazole-4-carboxylic Acid]: the results for the IC50 in test [1] and in test [2] were 100 to 1000 nM and 10 to 100 nM, respectively.
On the same counts, the results for `CC(Oc1cccc(-c2cccc(-n3ncc(C(=O)O)c3C3CC3c3cn(C)nn3)c2)c1)C1CCCCC1` (stereo not drawn) [Example 219, 1-(3′-(1-Cyclohexylethoxy)-[1,1′-biphenyl]-3-yl)-5-(2-(1-methyl-1H-1,2,3-triazol-4-yl)cyclopropyl)-1H-pyrazole-4-carboxylic acid] are 100 to 1000 nM and 10 to 100 nM.
On the same counts, the results for `Cn1cc(C2CC2c2c(C(=O)O)cnn2-c2cccc(-c3cccc(OCc4ccccc4)c3)c2)nn1` (stereo not drawn) [Example 221] are 100 to 1000 nM and 100 to 1000 nM.
For `Cn1cc(C2CC2c2c(C(=O)O)cnn2-c2cccc(-c3cccc(OCc4ccccc4F)c3)c2)nn1` (stereo not drawn) [Example 222, 1-(3′-((2-Fluorobenzyl)oxy)-[1,1′-biphenyl]-3-yl)-5-(2-(1-methyl-1H-1,2,3-triazol-4-yl)cyclopropyl)-1H-pyrazole-4-carboxylic acid], the half-maximal inhibitory concentration (IC50) (commonly the concentration needed to halve the response being measured) is 100 to 1000 nM in test [1] and 10 to 100 nM in test [2].
On the same counts, the results for `Cn1cc(C2CC2c2c(C(=O)O)cnn2-c2cccc(-c3cccc(OCc4ccc(F)cc4)c3)c2)nn1` (stereo not drawn) [Example 223, 1-(3′-((4-Fluorobenzyl)oxy)-[1,1′-biphenyl]-3-yl)-5-(2-(1-methyl-1H-1,2,3-triazol-4-yl)cyclopropyl)-1H-pyrazole-4-carboxylic acid] are 1000 to 10000 nM and 100 to 1000 nM.
The corresponding values for `Cn1cc(C2CC2c2c(C(=O)O)cnn2-c2cccc(-c3cccc(OCc4cccc(F)c4)c3)c2)nn1` (stereo not drawn) [Example 224, 1-(3′-((3-Fluorobenzyl)oxy)-[1,1′-biphenyl]-3-yl)-5-(2-(1-methyl-1H-1,2,3-triazol-4-yl)cyclopropyl)-1H-pyrazole-4-carboxylic acid] are 100 to 1000 nM and 100 to 1000 nM.
Consider `Cn1cc(C2CC2c2c(C(=O)O)cnn2-c2cccc(-c3cccc(OCCC(C)(C)C)c3)c2)nn1` (stereo not drawn) [Example 225, 1-(3′-(3,3-Dimethylbutoxy)-[1,1′-biphenyl]-3-yl)-5-(2-(1-methyl-1H-1,2,3-triazol-4-yl)cyclopropyl)-1H-pyrazole-4-carboxylic acid], for which the IC50 in test [1] is 100 to 1000 nM; in test [2] it was 10 to 100 nM.
With `CC(Oc1cccc(-c2cccc(-n3ncc(C(=O)O)c3C3CC3c3cn(C)nn3)c2)c1)C1CCOCC1` (stereo not drawn) [Example 227, 5-(2-(1-Methyl-1H-1,2,3-triazol-4-yl)cyclopropyl)-1-(3′-(1-(tetrahydro-2H-pyran-4-yl)ethoxy)-[1,1′-biphenyl]-3-yl)-1H-pyrazole-4-carboxylic Acid], the IC50 in test [1] and in test [2] was 10 to 100 nM each time.
Regarding `CC(Oc1cccc(-c2cccc(-n3ncc(C(=O)O)c3C3CC3c3cn(C)nn3)c2)c1)C1CCCC1` (stereo not drawn) [Example 228, 1-(3′-(1-Cyclopentylethoxy)-[1,1′-biphenyl]-3-yl)-5-(2-(1-methyl-1H-1,2,3-triazol-4-yl)cyclopropyl)-1H-pyrazole-4-carboxylic acid], the IC50 in test [1] was 100 to 1000 nM; in test [2], 10 to 100 nM.
The corresponding values for `Cn1cc(C2CC2c2c(C(=O)O)cnn2-c2cccc(-c3cccc(OC4CCCCC4)c3)c2)nn1` (stereo not drawn) [Example 229] are 100 to 1000 nM and 10 to 100 nM.
The corresponding values for `CC(Oc1cccc(-c2cccc(-n3ncc(C(=O)O)c3C3CC3c3cn(C)nn3)c2)c1)C1CC1` (stereo not drawn) [Example 231, 1-(3′-(1-Cyclopropylethoxy)-[1,1′-biphenyl]-3-yl)-5-(2-(1-methyl-1H-1,2,3-triazol-4-yl)cyclopropyl)-1H-pyrazole-4-carboxylic acid] are 100 to 1000 nM and 10 to 100 nM.
The corresponding values for `Cn1cc(C2CC2c2c(C(=O)O)cnn2-c2cccc(-c3cccc(OC4CCCN(C(=O)OC(C)(C)C)C4)c3)c2)nn1` (stereo not drawn) [Example 232, 1-(3′-((1-(tert-Butoxycarbonyl)piperidin-3-yl)oxy)-[1,1′-biphenyl]-3-yl)-5-(2-(1-methyl-1H-1,2,3-triazol-4-yl)cyclopropyl)-1H-pyrazole-4-carboxylic acid] are 10 to 100 nM and 10 to 100 nM.
Regarding `Cn1cc(C2CC2c2c(C(=O)O)cnn2-c2cccc(-c3cccc(CCC4CCCCC4)c3)c2)nn1` (stereo not drawn) [Example 233, 1-(3′-(2-Cyclohexylethyl)-[1,1′-biphenyl]-3-yl)-5-(2-(1-methyl-1H-1,2,3-triazol-4-yl)cyclopropyl)-1H-pyrazole-4-carboxylic Acid], the IC50 in test [1] lay in the range of 100 to 1000 nM; in test [2], 10 to 100 nM.
On the same counts, the results for `Cn1cc(C2CC2c2c(C(=O)O)cnn2-c2cccc(-c3cccc(OC4CCOCC4)c3F)c2)nn1` (stereo not drawn) [Example 234, 1-(2′-Fluoro-3′-((tetrahydro-2H-pyran-4-yl)oxy)-[1,1′-biphenyl]-3-yl)-5-(2-(1-methyl-1H-1,2,3-triazol-4-yl)cyclopropyl)-1H-pyrazole-4-carboxylic Acid] are 100 to 1000 nM and 10 to 100 nM.
With `CC(Oc1cccc(-c2cccc(-n3ncc(C(=O)O)c3C3CC3c3cn(C)nn3)c2)c1)c1ccccc1` (stereo not drawn) [Example 235, 5-(2-(1-Methyl-1H-1,2,3-triazol-4-yl)cyclopropyl)-1-(3′-(1-phenylethoxy)-[1,1′-biphenyl]-3-yl)-1H-pyrazole-4-carboxylic Acid], the IC50 was in the range of 100 to 1000 nM in test [1] and 10 to 100 nM in test [2].
The corresponding values for `Cn1cc(C2CC2c2c(C(=O)O)cnn2-c2cccc(-c3cccc(C(=O)C4CCCCC4)c3)c2)nn1` (stereo not drawn) [Example 243, 1-(3′-(Cyclohexanecarbonyl)-[1,1′-biphenyl]-3-yl)-5-(2-(1-methyl-1H-1,2,3-triazol-4-yl)cyclopropyl)-1H-pyrazole-4-carboxylic Acid] are 100 to 1000 nM and 10 to 100 nM.
On the same counts, the results for `COC(c1cccc(-c2cccc(-n3ncc(C(=O)O)c3C3CC3c3cn(C)nn3)c2)c1)C1CCCCC1` (stereo not drawn) [Example 244, 1-(3′-(Cyclohexyl(methoxy)methyl)-[1,1′-biphenyl]-3-yl)-5-(2-(1-methyl-1H-1,2,3-triazol-4-yl)cyclopropyl)-1H-pyrazole-4-carboxylic acid] are 100 to 1000 nM and 10 to 100 nM.

(Values after patent publication US10364256B2 (GlaxoSmithKline Intellectual Property Development Limited, priority 2015, dated 2019).)
